One experiment deals with Colo205 tumor cells. Put plainly: Cell growth inhibition assay (CellTiter-Glo), Colo205. Format: cell-based, Human. Particulars: Homo sapiens, COLO 205, 72 h; 3 days incubation. Put shortly: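 Cells plated at 500 cells/well in their growth media, dosed next day with nine-step 1:3 compound dilutions (final DMSO 0.2%), then incubated 3 days at 37° C, 5% CO2. Total ATP read by CellTiter-Glo luminescence as a surrogate for cell number; IC50 interpolated from 4-parameter fit versus DMSO controls.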
(In general: In ATP-based viability assays light output follows the ATP content of the culture.)

In the next experiment the test system is SK-MEL-3 tumor cells. Put plainly: Cell growth inhibition assay (CellTiter-Glo), SK-MEL-3. Particulars: Homo sapiens, SK-MEL3. The format is cell-based, Human. The method, then: (§1) Human breast tumor cells (BT474) were cultured in RPMI (Mediatech […]), containing 10% FBS (JRH Biosciences 12176) and 1% penicillin-streptomycin (Invitrogen 15140). Human head and neck tumor cells (HN5) were cultured in high glucose DMEM (Mediatech 50-013-PB) containing 10% FBS and 1% penicillin-streptomycin. Human colon tumor cells (Colo205) were cultured in RPMI (Mediatech 50-020-PB) containing 10% FBS and 1% penicillin-streptomycin. Human melanoma cancer cells (SK-MEL-28) were cultured in EMEM with nonessential amino acids (Mediatech 50-011-PB) containing 10% FBS, 1% sodium pyruvate (JT Baker 3354-04), and 1% penicillin-streptomycin. Human melanoma cancer cells (A375P F11s) were cultured in RPMI (Mediatech 50-020-PB) containing 10% FBS, 1% sodium pyruvate, and 1% penicillin-streptomycin. Human colon cancer cells (HT-29) were cultured in high glucose DMEM (Mediatech 50-013-PB) containing 10% FBS and 1% penicillin-streptomycin. Human melanoma cancer cells (SK-MEL-3) were cultured in McCoy's 5A (50-025-PB) containing 15% FBS, and 1% penicillin-streptomycin. All cell lines were maintained at 37° C. in a humidified 5% CO2, 95% air incubator. Cells were harvested using trypsin/EDTA (Invitrogen 25200), counted using a haemocytometer, and plated. For 96-well assays (using white full-area NUNC plates cat. #136102), cells were plated in 105 μL at the following densities (cells/well): HNS, 500; Colo 205, 500; SK-MEL-28, 500; A375P F11s, 500; HT-29, 500; SK-MEL-3, 500; and BT474, 3000. For 384-well assays (white full-area NUNC plates, cat. #781080), cells were plated in 48 μL at the following densities (cells/well): HNS, 500; Colo205, 500; SK-MEL-28, 500; A375P F11s, 500; HT-29, 500; SK-MEL-3, 500; and BT474, 2000.
(§2) The next day, compounds were diluted as follow: For 96-well assays, 13.5 μL of compound in DMSO were diluted using nine (9) serial 1:3 dilutions of 4.5 μL in 9 of DMSO. Medium (270 μL/well of RPMI with 10% FBS and 1% penicillin-streptomycin) was added to the plates. Aliquots (7 μL) were added to cells in the final assay giving a final DMSO concentration of 0.2%. For 384-well assays, 15 μL of compound in DMSO were diluted using nine (9) serial 1:3 dilutions of 5 μL in 10 μL of DMSO, followed by a further dilution of 5 μL of compound with 95 μL of medium, of which 2 μL were added to cells in the final assay giving a final DMSO concentration of 0.2%. Cells were incubated at 37° C., 5% CO2 for 3 days.
(§3) Total ATP was measured (as a surrogate estimate of cell number) using CellTiter-Glo® reagent (Promega G7571). Briefly, plates were removed from the incubator and allowed to equilibrate to room temperature for 30 minutes. CellTiter-Glo® (25 μL or 55 μL for 384-well or 96-well assays, respectively) reagent was added to each well and plates were shaken on an orbital plate shaker for 2 minutes. Plates were incubated without shaking for a further 30 minutes and read on an LJL Analyst GT reader in luminometer mode with an integration time of 0.5 seconds per well. Percent inhibition of cell growth was calculated relative to DMSO vehicle-treated control wells. Concentration of compound required to give 50% inhibition of vehicle-treated control cell growth (IC50) was interpolated using a 4-parameter fit for determining IC50 using the following equation: Y=A +((B−A)/(1+((C/X)̂D))) where […].

The next experiment relates to A375P F11s tumor cells. Put plainly: Cell growth inhibition assay (CellTiter-Glo), A375P F11s. The format is cell-based, Human. Particulars: Homo sapiens. The method, then: as §1, §2, §3
The next experiment deals with T1, ErbB2 (Homo sapiens, UniProt P04626).
T1 construct: made in house; host or cells: baculovirus expression system
T1 sequence (P04626 23-1255): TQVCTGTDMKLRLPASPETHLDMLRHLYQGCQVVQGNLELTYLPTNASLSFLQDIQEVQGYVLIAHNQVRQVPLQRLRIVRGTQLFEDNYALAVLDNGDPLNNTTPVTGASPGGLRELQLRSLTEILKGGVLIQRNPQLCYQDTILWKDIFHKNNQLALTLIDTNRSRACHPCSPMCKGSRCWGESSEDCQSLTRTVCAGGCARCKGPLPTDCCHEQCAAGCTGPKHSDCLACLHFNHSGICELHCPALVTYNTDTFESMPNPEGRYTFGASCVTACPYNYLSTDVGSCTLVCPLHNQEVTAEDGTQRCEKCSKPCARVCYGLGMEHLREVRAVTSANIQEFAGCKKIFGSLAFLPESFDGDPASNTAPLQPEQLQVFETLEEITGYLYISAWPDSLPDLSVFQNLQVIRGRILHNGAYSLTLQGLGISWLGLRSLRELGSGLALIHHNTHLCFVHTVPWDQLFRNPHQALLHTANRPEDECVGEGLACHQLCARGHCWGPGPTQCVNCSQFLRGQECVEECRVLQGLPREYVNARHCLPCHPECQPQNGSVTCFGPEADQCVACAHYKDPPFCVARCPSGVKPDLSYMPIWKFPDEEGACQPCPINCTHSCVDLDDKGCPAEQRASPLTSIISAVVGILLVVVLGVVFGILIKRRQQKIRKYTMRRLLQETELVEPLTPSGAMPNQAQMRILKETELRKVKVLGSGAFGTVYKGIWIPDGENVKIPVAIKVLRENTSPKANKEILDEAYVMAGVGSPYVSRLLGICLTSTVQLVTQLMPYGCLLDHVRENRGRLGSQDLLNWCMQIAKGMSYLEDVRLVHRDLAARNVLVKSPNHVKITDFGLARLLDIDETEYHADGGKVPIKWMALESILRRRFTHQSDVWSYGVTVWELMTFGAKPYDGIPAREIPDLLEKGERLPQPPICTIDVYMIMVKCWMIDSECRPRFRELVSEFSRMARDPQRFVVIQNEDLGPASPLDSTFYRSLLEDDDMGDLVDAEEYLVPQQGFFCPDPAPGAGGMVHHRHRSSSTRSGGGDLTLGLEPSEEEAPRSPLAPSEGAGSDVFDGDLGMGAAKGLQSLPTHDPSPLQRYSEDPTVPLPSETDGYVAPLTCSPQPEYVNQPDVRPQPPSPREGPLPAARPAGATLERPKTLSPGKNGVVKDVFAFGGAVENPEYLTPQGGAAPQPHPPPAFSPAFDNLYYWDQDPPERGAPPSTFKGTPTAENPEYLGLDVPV
Put plainly: ErbB-2 substrate phosphorylation assay (HTRF). The format is biochemical. Put shortly:
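Baculovirus-expressed EGFR (0.8 nM) or ErbB2 (10 nM) in enzyme mix, preincubated 1 h at 20 °C with compound (0.00027–47.6 μM final), then 90 min at 20 °C with substrate mix of 20 μM ATP, 0.8 uM biotinylated Peptide C, MnCl2, MOPS pH 7.5. Phosphotyrosine by HTRF; pIC50 reported.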

Counter-ions that a name gives are not always drawn.

On to `COc1ccc(Nc2nccc(-c3sc(C(C)C)nc3-c3cccc(NS(=O)(=O)c4c(F)cccc4F)c3)n2)cc1N(C)C` [Example 18, N-{3-[5-(2-{[3-(Dimethylamino)-4-(methyloxy)phenyl]amino}-4-pyrimidinyl)-2-(1-methylethyl)-1,3-thiazol-4-yl]phenyl}-2,6-difluorobenzenesulfonamide trifluoroacetate], for which the IC50 was below 100 nM in the experiment with Colo205 tumor cells, below 100 nM with SK-MEL-3 tumor cells, below 100 nM with A375P F11s tumor cells and 100 to 1000 nM at ErbB2.

On to `COc1cc(N2CCN(CCS(C)(=O)=O)CC2)c(C)cc1Nc1nccc(-c2sc(C(C)C)nc2-c2cccc(NS(=O)(=O)c3c(F)cccc3F)c2)n1` [Example 19], for which the half-maximal inhibitory concentration (IC50) with Colo205 tumor cells is below 100 nM; with SK-MEL-3 tumor cells it was 100 to 1000 nM; with A375P F11s tumor cells, 100 to 1000 nM; against ErbB2, below 100 nM.

For `COc1cc(N2CCC(N3CCN(CCS(C)(=O)=O)CC3)CC2)ccc1Nc1nccc(-c2sc(C(C)C)nc2-c2cccc(NS(=O)(=O)c3c(F)cccc3F)c2)n1` [Example 20, 2,6-Difluoro-N-{3-[2-(1-methylethyl)-5-(2-{[2-(methyloxy)-4-(4-{4-[2-(methylsulfonyl)ethyl]-1-piperazinyl}-1-piperidinyl)phenyl]amino}-4-pyrimidinyl)-1,3-thiazol-4-yl]phenyl}benzenesulfonamide], the IC50 in the experiment on Colo205 tumor cells is below 100 nM; with SK-MEL-3 tumor cells it was 100 to 1000 nM; in the experiment with A375P F11s tumor cells, 100 to 1000 nM; on ErbB2, below 100 nM.

Regarding `O=S(=O)(Nc1cccc(-c2nc(N3CCCC3)sc2-c2ccnc(Nc3ccc(N4CCN(CCF)CC4)c(F)c3)n2)c1)c1c(F)cccc1F` [Example 21, 2,6-Difluoro-N-{3-[5-[2-({3-fluoro-4-[4-(2-fluoroethyl)-1-piperazinyl]phenyl}amino)-4-pyrimidinyl]-2-(1-pyrrolidinyl)-1,3-thiazol-4-yl]phenyl}benzenesulfonamide], the concentration for half-maximal inhibition (IC50) with Colo205 tumor cells, in the experiment on SK-MEL-3 tumor cells, in the experiment on A375P F11s tumor cells and at ErbB2 was below 100 nM in each case.

With `CC(C)c1nc(-c2ccc(F)c(NS(=O)(=O)c3ccccc3F)c2)c(-c2ccnc(Nc3ccc(N4CCN(CCS(C)(=O)=O)CC4)c(F)c3)n2)s1` [Example 22, 2-Fluoro-N-{2-fluoro-5-[5-{2-[(3-fluoro-4-}4-[2-(methylsulfonyl)ethyl]-1-piperazinyl}phenyl)amino]-4-pyrimidinyl}-2-(1-methylethyl)-1,3-thiazol-4-yl]phenyl}benzenesulfonamide hydrochloride], the half-maximal inhibitory concentration (IC50) was below 100 nM with Colo205 tumor cells, 100 to 1000 nM in the experiment with SK-MEL-3 tumor cells, below 100 nM in the experiment on A375P F11s tumor cells and below 100 nM against ErbB2.

For the compound `CC(C)c1nc(-c2ccc(F)c(NS(=O)(=O)c3c(F)cccc3F)c2)c(-c2ccnc(Nc3ccc(N4CCOCC4)nc3)n2)s1` [Example 23, 2,6-Difluoro-N-{2-fluoro-5-[2-(1-methylethyl)-5-(2-{[6-(4-morpholinyl)-3-pyridinyl]amino}-4-pyrimidinyl)-1,3-thiazol-4-yl]phenyl}benzenesulfonamide], the IC50 with Colo205 tumor cells is below 100 nM; with SK-MEL-3 tumor cells it was below 100 nM; in the experiment on A375P F11s tumor cells it was below 100 nM; at ErbB2, 100 to 1000 nM.

For the compound `CC(C)c1nc(-c2ccc(F)c(NS(=O)(=O)c3c(F)cccc3F)c2)c(-c2ccnc(Nc3ccc(N4CCC(C#N)CC4)nc3)n2)s1` [Example 24, N-{5-[5-(2-{[6-(4-Cyano-1-piperidinyl)-3-pyridinyl]amino}-4-pyrimidinyl)-2-(1-methylethyl)-1,3-thiazol-4-yl]-2-fluorophenyl}-2,6-difluorobenzenesulfonamide], the IC50 in the experiment on Colo205 tumor cells is below 100 nM; in the experiment with SK-MEL-3 tumor cells, 100 to 1000 nM; in the experiment on A375P F11s tumor cells, below 100 nM; at ErbB2, 100 to 1000 nM.

Take `CC(C)c1nc(-c2ccc(F)c(NS(=O)(=O)c3c(F)cccc3F)c2)c(-c2ccnc(Nc3ccc(N4CCN(CCF)CC4)c(F)c3)n2)s1` [Example 25]: the 50% inhibitory concentration (IC50) in the experiment with Colo205 tumor cells is below 100 nM; in the experiment on SK-MEL-3 tumor cells, 100 to 1000 nM; in the experiment with A375P F11s tumor cells it was 100 to 1000 nM; against ErbB2, below 100 nM.

On to `O=S(=O)(Nc1cc(-c2nc(N3CCCC3)sc2-c2ccnc(Nc3ccc(N4CCOCC4)nc3)n2)ccc1F)c1c(F)cccc1F` [Example 26, 2,6-Difluoro-N-{2-fluoro-5-[5-(2-{(6-(4-morpholinyl)-3-pyridinyl]amino}-4-pyrimidinyl)-2-(1-pyrrolidinyl)-1,3-thiazol-4-yl]phenyl}benzenesulfonamide], for which the half-maximal inhibitory concentration (IC50) with Colo205 tumor cells was below 100 nM; in the experiment with SK-MEL-3 tumor cells, 100 to 1000 nM; in the experiment with A375P F11s tumor cells, below 100 nM; at ErbB2, 100 to 1000 nM.

As to `CN(C)c1nc(-c2ccc(F)c(NS(=O)(=O)c3c(F)cccc3F)c2)c(-c2ccnc(Nc3ccc(N4CCOCC4)nc3)n2)s1` [Example 27, N-{5-[2-(Dimethylamino)-5-(2-{[6-(4-morpholinyl)-3-pyridinyl]amino}-4-pyrimidinyl)-1,3-thiazol-4-yl]-2-fluorophenyl}-2,6-difluorobenzenesulfonamide], the 50% inhibitory concentration (IC50) in the experiment on Colo205 tumor cells was 100 to 1000 nM; in the experiment with SK-MEL-3 tumor cells it was below 100 nM; with A375P F11s tumor cells, below 100 nM; at ErbB2, 100 to 1000 nM.

With `CC(C)(C)c1nc(-c2ccc(F)c(NS(=O)(=O)c3c(F)cccc3F)c2)c(-c2ccnc(Nc3ccc(N4CCOCC4)nc3)n2)s1` [Example 28, N-{5-[2-(1,1-Dimethylethyl)-5-(2-{[[6-(4-morpholinyl)-3-pyridinyl]amino}-4-pyrimidinyl)-1,3-thiazol-4-yl]-2-fluorophenyl]-2,6-difluorobenzenesulfonamide hydrochloride], the IC50 is below 100 nM in the experiment with Colo205 tumor cells, below 100 nM in the experiment with SK-MEL-3 tumor cells, below 100 nM in the experiment with A375P F11s tumor cells and 100 to 1000 nM at ErbB2.

In the case of `CC(C)c1nc(-c2cccc(NS(=O)(=O)c3c(F)cccc3F)c2F)c(-c2ccnc(Nc3ccc(N4CCN(CCF)CC4)c(F)c3)n2)s1` [Example 29, 2,6-Difluoro-N-{2-fluoro-3-[5-[2-({3-fluoro-4-[4-(2-fluoroethyl)-1-piperazinyl]phenyl}amino)-4-pyrimidinyl]-2-(1-methylethyl)-1,3-thiazol-4-yl]phenyl}benzenesulfonamide], the IC50 in the experiment on Colo205 tumor cells is below 100 nM; in the experiment with SK-MEL-3 tumor cells, below 100 nM; in the experiment with A375P F11s tumor cells, below 100 nM; at ErbB2, 100 to 1000 nM.

With `CC(C)c1nc(-c2cccc(NS(=O)(=O)c3c(F)cccc3F)c2F)c(-c2ccnc(Nc3cnc(N4CCOCC4)c(F)c3)n2)s1` [Example 30, 2,6-Difluoro-N-{2-fluoro-3-[5-(2-{[5-fluoro-6-(4-morpholinyl)-3-pyridinyl]amino}-4-pyrimidinyl)-2-(1-methylethyl)-1,3-thiazol-4-yl]phenyl}benzenesulfonamide], the half-maximal inhibitory concentration (IC50) is below 100 nM in the experiment with Colo205 tumor cells, below 100 nM in the experiment on SK-MEL-3 tumor cells, below 100 nM with A375P F11s tumor cells and above 1000 nM on ErbB2.

Broadly, the IC50 is the concentration that gives 50% inhibition. Higher therefore signals lower potency.

The values above are taken from US20110319392A1, “Thiazole Sulfonamide And Oxazole Sulfonamide Kinase Inhibitors” (priority 2009, published 2011).
